Test results taken from patent publication US8410106B2, “Hydrazine-substituted anthranilic acid derivatives” (Bayer Cropscience AG, priority 2010, dated 2013).
Like-named read-outs stand apart in the source and are kept apart here.

How the values were obtained:
[1] = system: caterpillars of the army worm (Spodoptera frugiperda); assay: Spodoptera frugiperda test (SPODFR spray treatment); assay type: in vivo; conditions: foliar, 168 h, read-out: activity (caterpillars killed)
[2] = system: larvae of the mustard beetle (Phaedon cochleariae); assay: Phaedon test (PHAECO spray treatment); conditions: in Brassica rapa, foliar, 168 h, read-out: activity (beetle larvae killed)
[3] = logP determination by HPLC on reversed-phase columns (C 18), EEC Directive 79/831 Annex V.A8; assay type: physicochemical
[4] = system: green peach aphid (Myzus persicae); assay: Myzus test (MYZUPE spray treatment); assay type: in vivo; conditions: foliar, 144 h, read-out: activity (aphids killed)
Experimental: After 6 days the activity is determined, in %.

[5] = HPLC, reversed-phase C 18, value in text of the Preparation Examples, read-out: logP
[6] = HPLC, reversed-phase C 18, table value without method mark, read-out: logP
[7] = application rate 100 g/ha, after 7 days, maize leaf discs, spray
[8] = application rate 100 g/ha, after 6 days, Chinese cabbage leaf discs, spray

Compound	pest or weed control at 100 g/ha ([1]; in Zea mays) [%]	pest or weed control at 100 g/ha [2] [%]	pest or weed control at 100 g/ha ([4]; in Brassica rapa) [%]	chromatographic logP [3]	chromatographic logP [3, 6]	other results
COC(=O)N(C)NC(=O)c1cc(Cl)cc(C)c1NC(=O)c1cc(Cn2nnc(C(F)(F)C(F)(F)C(F)(F)F)n2)nn1-c1ncccc1Cl [Example 1, methyl N′-(5-chloro-2-{[2-(3-chloropyridin-2-yl)-5-(5-heptalluoropropyltetrazol-2-ylmethyl)-2H-pyrazole-3-carbonyl]amino}-3-methylbenzoyl)-N-methylhydrazinecarboxylate]	100	100	100	–	–	chromatographic logP [3, 5]: 3.66
COC(=O)NNC(=O)c1cc(I)cc(C)c1NC(=O)c1cc(Cn2nnc(C(F)(F)C(F)(F)C(F)(F)F)n2)nn1-c1ncccc1Cl [Example 2, Methyl N′-(2-{[2-(3-chloropyridin-2-yl)-5-(5-heptalluoropropyltetrazol-2-ylmethyl)-2H-pyrazole-3-carbonyl]amino}-5-iodo-3-methylbenzoyl)hydrazincarboxylate]	100	100	–	–	–	chromatographic logP [3, 5]: 3.58
COC(=O)NNC(=O)c1cc(Cl)cc(C)c1NC(=O)c1cc(Cn2nnc(C(F)(F)F)n2)nn1-c1ncccc1Cl [Example 3]	100	100	100	2.73	–	–
COC(=O)NNC(=O)c1cc(C#N)cc(C)c1NC(=O)c1cc(Cn2nnc(C(F)(F)F)n2)nn1-c1ncccc1Cl [Example 4]	100	100	100	2.41	–	–
COC(=O)N(C)NC(=O)c1cc(Cl)cc(C)c1NC(=O)c1cc(Cn2nnc(C(F)(F)F)n2)nn1-c1ncccc1Cl [Example 5]	100	100	100	2.96	–	–
COC(=O)N(C)NC(=O)c1cc(C#N)cc(C)c1NC(=O)c1cc(Cn2nnc(C(F)(F)F)n2)nn1-c1ncccc1Cl [Example 6]	100	100	100	2.63	–	–
COC(=O)N(C)N(C)C(=O)c1cc(Cl)cc(C)c1NC(=O)c1cc(Cn2nnc(C(F)(F)F)n2)nn1-c1ncccc1Cl [Example 7]	100	100	100	3.39	–	–
COC(=O)N(C)N(C)C(=O)c1cc(C#N)cc(C)c1NC(=O)c1cc(Cn2nnc(C(F)(F)F)n2)nn1-c1ncccc1Cl [Example 8]	100	100	100	2.97	–	–
COC(=O)N(C)NC(=O)c1cc(Cl)cc(C)c1NC(=O)c1cc(Cn2nc(C(F)(F)F)cc2C(F)(F)F)nn1-c1ncc(C(F)(F)F)cc1Cl [Example 10]	–	–	–	–	4.35	–
COC(=O)N(C)NC(=O)c1cc(Cl)cc(Cl)c1NC(=O)c1cc(Cn2nc(C(F)(F)F)c(Cl)c2C)nn1-c1ncccc1Cl [Example 11]	100	100	90	3.55	–	–
COC(=O)N(C)NC(=O)c1cc(Cl)cc(Cl)c1NC(=O)c1cc(Cn2nc(C(F)(F)F)c(Br)c2C)nn1-c1ncccc1Cl [Example 12]	100	100	100	3.57	–	–
COC(=O)N(C)NC(=O)c1cc(Cl)cc(C)c1NC(=O)c1cc(Cn2nc(C(F)(F)C(F)(F)F)cc2C(F)(F)C(F)(F)F)nn1-c1ncccc1Cl [Example 13]	–	100	–	–	4.32	pest or weed control at 100 g/ha [1, 7]: 100%
COC(=O)N(C)NC(=O)c1cc(Cl)cc(Cl)c1NC(=O)c1cc(Cn2nc(C(F)(F)C(F)(F)F)cc2C(F)(F)C(F)(F)F)nn1-c1ncccc1Cl [Example 14]	–	100	–	–	4.3	pest or weed control at 100 g/ha [1, 7]: 100%
COC(=O)N(C)NC(=O)c1cc(Cl)cc(Cl)c1NC(=O)c1cc(Cn2nc(C(F)(F)F)cc2-c2ccccc2)nn1-c1ncccc1Cl [Example 15]	–	–	–	–	3.82	pest or weed control at 100 g/ha [1, 7]: 100%
COC(=O)N(C)NC(=O)c1cc(C#N)cc(C)c1NC(=O)c1cc(Cn2nnc(C(F)(C(F)(F)F)C(F)(F)F)n2)nn1-c1ncccc1Cl [Example 16]	–	100	–	–	3.26	pest or weed control at 100 g/ha [1, 7]: 100%; pest or weed control at 100 g/ha [4, 8]: 100%
COC(=O)N(C)NC(=O)c1cc(I)cc(C)c1NC(=O)c1cc(Cn2ccc(C(F)(F)F)n2)nn1-c1ncccc1Cl [Example 17]	100	100	100	3.01	–	–
COC(=O)N(C)NC(=O)c1cc(Cl)cc(Cl)c1NC(=O)c1cc(Cn2nc(C(F)(F)F)cc2C(F)(F)F)nn1-c1ncc(C(F)(F)F)cc1Cl [Example 18]	–	–	–	–	4.32	–
COC(=O)N(C)NC(=O)c1cc(Cl)cc(Cl)c1NC(=O)c1cc(Cn2nc(C(F)(F)F)c([N+](=O)[O-])c2C)nn1-c1ncccc1Cl [Example 19]	–	100	–	–	3.11	pest or weed control at 100 g/ha [1, 7]: 100%
COC(=O)N(C)NC(=O)c1cc(Cl)cc(C)c1NC(=O)c1cc(Cn2cc([N+](=O)[O-])c(C(F)(F)F)n2)nn1-c1ncccc1Cl [Example 20]	100	100	90	3.07	–	–
COC(=O)N(C)NC(=O)c1cc(Cl)cc(Cl)c1NC(=O)c1cc(Cn2nc(C(F)(F)F)nc2C)nn1-c1ncccc1Cl [Example 21]	100	–	90	2.51	–	–

Compound	pest or weed control at 100 g/ha ([1]; in Zea mays) [%]	pest or weed control at 100 g/ha [2] [%]	pest or weed control at 100 g/ha ([4]; in Brassica rapa) [%]	chromatographic logP [3]	chromatographic logP [3, 6]	other results
COC(=O)N(C)NC(=O)c1cc(C#N)cc(C)c1NC(=O)c1cc(COc2ccc(C(F)(F)F)nn2)nn1-c1ncccc1Cl [Example 22]	–	100	100	2.53	–	–
COC(=O)N(C)NC(=O)c1cc(Cl)cc(C)c1NC(=O)c1cc(Cn2cc(-c3ccc(Cl)cc3)nn2)nn1-c1ncccc1Cl [Example 23]	100	100	100	3.14	–	–
COC(=O)N(C)NC(=O)c1cc(Cl)cc(C)c1NC(=O)c1cc(Cn2cc(C(C)(C)C)nn2)nn1-c1ncccc1Cl [Example 24]	–	–	–	2.53	–	–
COC(=O)N(C)N(C)C(=O)c1cc(Cl)cc(C)c1NC(=O)c1cc(Cn2cc(C3CC3)nn2)nn1-c1ncccc1Cl [Example 39]	–	–	80	2.71	–	–
COC(=O)N(C)N(C)C(=O)c1cc(Cl)cc(C)c1NC(=O)c1cc(Cn2cc(C(C)(C)C)nn2)nn1-c1ncccc1Cl [Example 40]	–	–	–	2.98	–	–
COC(=O)N(C)NC(=O)c1cc(Cl)cc(Cl)c1NC(=O)c1cc(Cn2nnc(C(F)(F)F)n2)nn1-c1ncccc1Cl [Example 43]	–	–	–	2.92	–	–
COC(=O)N(C)NC(=O)c1cc(F)cc(C)c1NC(=O)c1cc(Cn2nnc(C(F)(F)C(F)(F)F)n2)nn1-c1ncccc1Cl [Example 44]	–	–	–	3.05	–	–
COC(=O)N(C)NC(=O)c1cc(C#N)cc(C)c1NC(=O)c1cc(Cn2nnnc2C(F)(F)F)nn1-c1ccccc1Cl [Example 55]	–	–	–	–	2.69	–
COC(=O)N(C)NC(=O)c1cc(C#N)cc(C)c1NC(=O)c1cc(Cn2nnc(C(F)(F)F)n2)nn1-c1ccccc1Cl [Example 56]	–	–	–	–	2.97	–
COC(=O)NNC(=O)c1cc(C#N)cc(C)c1NC(=O)c1cc(Cn2nnc(C(F)(F)F)n2)nn1-c1ccccc1Cl [Example 58]	–	–	–	–	2.79	–
COC(=O)NNC(=O)c1cc(Cl)cc(C)c1NC(=O)c1cc(Cn2cc(C(C)(C)C)nn2)nn1-c1ncccc1Cl [Example 62]	100	–	–	2.38	–	–
COC(=O)N(C)NC(=O)c1cc(Cl)cc(C)c1NC(=O)c1cc(Cn2cnc(SC)n2)nn1-c1ncccc1Cl [Example 64]	–	–	–	2.09	–	–
COC(=O)N(C)NC(=O)c1cc(Cl)cc(C)c1NC(=O)c1cc(Cn2nc(C)c(Br)c2C)nn1-c1ncccc1Cl [Example 65]	100	–	80	2.97	–	–
COC(=O)N(C)NC(=O)c1cc(Cl)cc(C)c1NC(=O)c1cc(CNS(=O)(=O)c2ccccc2C(F)(F)F)nn1-c1ncccc1Cl [Example 70]	–	–	–	–	2.81	–
COC(=O)N(C)NC(=O)c1cc(Cl)cc(C)c1NC(=O)c1cc(CNS(=O)(=O)c2ccccc2)nn1-c1ncccc1Cl [Example 71]	–	–	–	2.42	–	–
COC(=O)N(C)NC(=O)c1cc(C#N)cc(C)c1NC(=O)c1cc(Cn2cnc(C(F)(F)F)c2C(F)(F)F)nn1-c1ncccc1Cl [Example 76]	–	–	–	–	2.77	–
COC(=O)N(C)NC(=O)c1cc(I)cc(C)c1NC(=O)c1cc(Cn2cnc(C(F)(F)F)c2)nn1-c1ncccc1Cl [Example 77]	83	–	80	2.56	–	–
COC(=O)N(C)NC(=O)c1cc(C#N)cc(C)c1NC(=O)c1cc(Cn2cnc(C(F)(F)F)c2)nn1-c1ncccc1Cl [Example 78]	–	–	90	2.1	–	–
COC(=O)NNC(=O)c1cc(I)cc(C)c1NC(=O)c1cc(Cn2cnc(C(F)(F)F)c2)nn1-c1ncccc1Cl [Example 80]	–	–	–	2.38	–	–
COC(=O)NNC(=O)c1cc(C#N)cc(C)c1NC(=O)c1cc(Cn2nnc(C(F)(F)F)n2)nn1-c1ccccc1Cl [Example 84]	–	100	–	–	–	pest or weed control at 100 g/ha [1, 7]: 100%; pest or weed control at 100 g/ha [4, 8]: 100%
